Laboratory results from ChEMBL document CHEMBL1201862, “PubChem BioAssay data set” (2004).
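A five-concentration, 48-hour dose response in 96-well plates underlies each endpoint, interpolated linearly between surrounding concentrations. At the GI50, growth is halved.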 Active and inactive are the calls of the source. Rule as the data show it: active = GI50 up to about 1.1 µM and inactive = higher.

How the values were obtained:
Experiment in all cases: inhibition of tumour cell growth, NCI panel, 48 h
HL-60 = system: HL-60
MCF7 = system: MCF7
RPMI-8226 = system: RPMI-8226
MOLT-4 = system: MOLT-4
ACHN = system: ACHN
SR = system: SR
MDA-MB-435 = system: MDA-MB-435
UACC-257 = system: UACC-257
K562 = system: K562
HCC 2998 = system: HCC 2998
KM12 = system: KM12
SF-539 = system: SF-539
NCI-H460 = system: NCI-H460
IGROV-1 = system: IGROV-1
HT-29 = system: HT-29
SF-268 = system: SF-268
SK-MEL-5 = system: SK-MEL-5
SK-OV-3 = system: SK-OV-3
Malme-3M = system: Malme-3M
SK-MEL-2 = system: SK-MEL-2

Structure (SMILES) | GI50 (HL-60) | GI50 (MCF7) | GI50 (RPMI-8226) | GI50 (MOLT-4) | GI50 (ACHN) | GI50 (SR) | GI50 (MDA-MB-435) | GI50 (UACC-257) | GI50 (K562) | GI50 (HCC 2998) | GI50 (KM12) | GI50 (SF-539) | GI50 (NCI-H460) | GI50 (IGROV-1) | GI50 (HT-29) | GI50 (SF-268) | GI50 (SK-MEL-5) | GI50 (SK-OV-3) | GI50 (Malme-3M) | GI50 (SK-MEL-2)
Cc1nc(C)c(N2CCN([N+](=O)[O-])CC2)c(O)n1 | > 100 µM (inactive) | > 100 µM (inactive) | > 100 µM (inactive) | > 100 µM (inactive) | > 100 µM (inactive) | > 100 µM (inactive) | > 100 µM (inactive) | > 100 µM (inactive) | > 100 µM (inactive) | > 100 µM (inactive) | > 100 µM (inactive) | > 100 µM (inactive) | > 100 µM (inactive) | > 100 µM (inactive) | > 100 µM (inactive) | > 100 µM (inactive) | > 100 µM (inactive) | > 100 µM (inactive) | > 100 µM (inactive) | 
COC(=O)/C=C\C(C#N)(C#N)/N=C/c1ccsc1 | 0.429 µM (active) | 1.88 µM (inactive) | 1.25 µM (inactive) | 1.16 µM (inactive) | 1.42 µM (inactive) | 0.214 µM (active) | 5.4 µM (inactive) | 4.45 µM (inactive) | 0.525 µM (active) | 16.1 µM (inactive) | 14.5 µM (inactive) |  | 17.3 µM (inactive) | 9.08 µM (inactive) | 4.18 µM (inactive) | 15.2 µM (inactive) | 4.66 µM (inactive) | 17.2 µM (inactive) | 1.51 µM (inactive) | 16.9 µM (inactive)
CC(=O)N(CCCCNC(=O)C(F)(F)F)CCCNC(=O)C(F)(F)F | > 100 µM (inactive) | > 100 µM (inactive) | > 100 µM (inactive) | > 100 µM (inactive) | > 100 µM (inactive) | > 100 µM (inactive) | > 100 µM (inactive) | > 100 µM (inactive) | > 100 µM (inactive) | > 100 µM (inactive) | > 100 µM (inactive) | > 100 µM (inactive) | > 100 µM (inactive) | > 100 µM (inactive) | > 100 µM (inactive) | > 100 µM (inactive) | > 100 µM (inactive) | > 100 µM (inactive) |  | > 100 µM (inactive)
COC(=O)c1ccc(OCCn2nnc(C(=O)NN)c2C(=O)NN)cc1 | > 100 µM (inactive) | > 100 µM (inactive) | > 100 µM (inactive) | > 100 µM (inactive) | > 100 µM (inactive) | > 100 µM (inactive) | > 100 µM (inactive) | > 100 µM (inactive) | > 100 µM (inactive) | > 100 µM (inactive) | > 100 µM (inactive) |  | 74 µM (inactive) |  | > 100 µM (inactive) |  | > 100 µM (inactive) |  | > 100 µM (inactive) | > 100 µM (inactive)
O=C1/C(=C/C=C/c2ccccc2)N=C(c2ccccc2)N1c1ccc(S(=O)(=O)Nc2nccs2)cc1 | 46.1 µM (inactive) | 18.7 µM (inactive) | 21.9 µM (inactive) | 50.1 µM (inactive) | 17.8 µM (inactive) | 30.9 µM (inactive) | 28.2 µM (inactive) | 34.6 µM (inactive) | 40.2 µM (inactive) |  | 26.5 µM (inactive) | 20.8 µM (inactive) | 25.8 µM (inactive) | 20.2 µM (inactive) | 23 µM (inactive) | 14 µM (inactive) | 20.6 µM (inactive) | 28.1 µM (inactive) | 32.7 µM (inactive) | 25.1 µM (inactive)
NS(=O)(=O)c1nnc(NC(=O)c2ccccc2)s1 |  | > 100 µM (inactive) | > 100 µM (inactive) | > 100 µM (inactive) | > 100 µM (inactive) | > 100 µM (inactive) | > 100 µM (inactive) | > 100 µM (inactive) | > 100 µM (inactive) | > 100 µM (inactive) | > 100 µM (inactive) | > 100 µM (inactive) | > 100 µM (inactive) |  |  | > 100 µM (inactive) | > 100 µM (inactive) | > 100 µM (inactive) | > 100 µM (inactive) | > 100 µM (inactive)
C[N+](C)(CCCn1ccnc1[N+](=O)[O-])CCCn1ccnc1[N+](=O)[O-] | > 100 µM (inactive) | > 100 µM (inactive) | > 100 µM (inactive) | > 100 µM (inactive) | > 100 µM (inactive) | > 100 µM (inactive) | > 100 µM (inactive) | > 100 µM (inactive) | > 100 µM (inactive) |  | > 100 µM (inactive) | > 100 µM (inactive) | > 100 µM (inactive) | > 100 µM (inactive) | > 100 µM (inactive) | > 100 µM (inactive) | > 100 µM (inactive) | > 100 µM (inactive) | > 100 µM (inactive) | > 100 µM (inactive)
O=C1OC(c2ccc(O)c(Cl)c2)(c2ccc(O)c(Cl)c2)c2ccc(Br)c3cccc1c23.O=C1OC(c2ccc(O)c(Cl)c2)(c2ccc(O)c(Cl)c2)c2cccc3c(Br)ccc1c23 |  | 15.2 µM (inactive) | 16.9 µM (inactive) | 16.3 µM (inactive) |  | 21.2 µM (inactive) | 18 µM (inactive) | 19.5 µM (inactive) | 22.7 µM (inactive) | 19.3 µM (inactive) | 24.1 µM (inactive) | 18.2 µM (inactive) | 16.4 µM (inactive) | 18.9 µM (inactive) | 11.5 µM (inactive) | 14.2 µM (inactive) | 17.5 µM (inactive) | 17.2 µM (inactive) | 18.9 µM (inactive) | 19.6 µM (inactive)
